Like-named read-outs stand apart in the source and are kept apart here.
How the values were obtained:
[1] = test system: dry eye syndrome model New Zealand rabbits; test: Dry eye syndrome experiment (benzalkonium chloride model): tear film break-up time; format: in vivo, male New Zealand White rabbits; details: for tear film break-up time: compared with the model group
[2] = test system: intraocular pressure of guinea pigs; test: Adverse reactions of continuous ocular administration: intraocular pressure; format: in vivo
Outline: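 Guinea pigs (300-350 g, both sexes) dosed bilaterally with 5 mg/5 mL ophthalmic suspensions, saline as blank; intraocular pressure measured before dosing and on days 7, 14, 21 and 28.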

[3] = Pharmacokinetic (PK) experiment in rats; format: in vivo, male SD rats; details: same experimental conditions
Outline: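 Male SD rats dosed by body weight, oral group fasted overnight until 4 h post-dose. Jugular blood sampled 2 min–24 h into heparin; plasma analysed and PK parameters derived from concentration–time data.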

[4] = test system: dry eye syndrome model New Zealand rabbits; test: Dry eye syndrome experiment (benzalkonium chloride model): corneal fluorescein sodium staining; format: in vivo, male New Zealand White rabbits; details: for inflammatory response on the ocular surface / ocular symptoms: compared with the model group
[5] = target: T1, mineralocorticoid receptor (MR) (Homo sapiens, UniProt P08235); test: Assay for agonist activity on mineralocorticoid receptor (luciferase reporter, HEK293 cells transfected with pBIND-MR plasmid); format: cell-based; details: for Target selectivity MR/GR: ratio of EC50 values
T1 sequence (P08235 726-984): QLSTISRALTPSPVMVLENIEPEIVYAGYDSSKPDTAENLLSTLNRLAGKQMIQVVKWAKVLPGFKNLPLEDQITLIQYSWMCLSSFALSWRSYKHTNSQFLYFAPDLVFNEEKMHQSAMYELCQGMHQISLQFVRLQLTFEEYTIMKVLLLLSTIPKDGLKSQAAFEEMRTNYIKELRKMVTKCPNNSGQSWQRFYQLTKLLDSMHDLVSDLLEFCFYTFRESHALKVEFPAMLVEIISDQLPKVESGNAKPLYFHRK
Outline: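 HEK293 cells transiently transfected with pBIND-MR or pBIND-PR, seeded in phenol red-free DMEM with 5% charcoal-stripped serum. Compounds tested as 12-point 4-fold dilutions from 50 µM in duplicate, 0.1% DMSO blank. Luciferase luminescence read, EC50 by nonlinear fit.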

psoriasis model mice = test: Psoriasis experiment (imiquimod model): skin lesion (PASI) score; format: in vivo; details: for PASI scores: compared with the model group
Procedure: Positive control drug: Fluticasone Propionate Cream (specification: 0.05% × 15 g, Zhejiang Xianju Pharmaceutical Co. Ltd., Lot No. 211106), stored at room temperature protected from light until use.
Adult mice were selected, and the skin of 2 cm × 3 cm on the back of mice was locally depilated. The mice in the model group and drug administration group were applied with 62.5 mg of 5% imiquimod cream on their back for modeling, while the mice in the blank control group were applied with medical petroleum jelly on their back daily. The above procedures were performed once a day for 7 consecutive days.
The mice in the drug administration group were applied with the corresponding drugs on their backs daily at a dose of 0.2 g per mouse, while the blank control group and the model group were only applied with 0.2 g of the test sample drug matrix. One hour after drug administration, the drugs were wiped off with sterile cotton swabs, followed by the application of imiquimod. The above procedures were performed once a day for 7 consecutive days.
Referring to the clinical Psoriasis Area and Severity Index (PASI) scoring criteria, erythema, scaling, and thickness at the skin lesion sites were evaluated on a 0-4 scale on day 8 of modeling, and the total score was obtained by summing the three items.
• (1) Erythema: a score of 0 points indicates no erythema, a score of 1 point indicates erythema appearing light red, a score of 2 points indicates erythema appearing red, a score of 3 points indicates erythema appearing dark red, and a score of 4 points indicates erythema appearing extremely deep red; • (2) Scaling: a score of 0 points indicates no scaling on the surface, a score of 1 point indicates partial skin lesions covered with scaling, a score of 2 points indicates most skin lesions covered with scaling, a score of 3 points indicates almost all skin lesions covered with scaling in layers, and a score of 4 points indicates all skin lesions covered with scaling; • (3) Thickness: a score of 0 points indicates skin lesions flush with normal skin, a score of 1 point indicates skin lesions slightly elevated above normal skin surface, a score of 2 points indicates moderate elevation of skin lesions, a score of 3 points indicates thickened skin lesions with obvious elevation, and a score of 4 points indicates highly thickened skin lesions with prominent elevation.
Statistical analysis was performed using SPSS software, and the results were expressed as mean ± standard deviation. One-way ANOVA was used for intergroup comparisons. For data with homogeneous variance, the LSD test was used; for data with heterogeneous variance, the Dunnett-t test was used. A value of P < 0.05 was considered statistically significant.

[6] = D3, 1 mg/mL, 50 µL/eye, 3 times a day for 14 days
[7] = D7, 1 mg/mL, 50 µL/eye, 3 times a day for 14 days
[8] = D15, 1 mg/mL, 50 µL/eye, 3 times a day for 14 days

## C[C@]12C=CC(=O)C=C1CC[C@H]1[C@@H]3C[C@H]4OC(c5ccc(CSC6CCOC6=O)cc5)O[C@@]4(C(=O)CO)[C@@]3(C)C[C@H](O)[C@@]12Cl (stereo partly drawn) [Compound 23, (6aS,6bR,7S,8aS,8bS,11aR,12aS,12bS)-6b-Chloro-7-hydroxy-8b-(2-hydroxyacetyl)-6a,8a-dimethyl-10-(4-(((2-oxotetrahydrofuran-3-yl)thio)methyl)phenyl)-1,2,6a,6b,7,8,8a,8b,11a,12,12a,12b-do decahydro-4H-naphtho[2',1':4,5]indeno[1,2-d][1,3]dioxol-4-one]
[1]; [6]
  Tear film break-up time (s) D3: 45.67 ± 13.69 s
[1]; [7]
  Tear film break-up time (s) D7: 49.33 ± 8.91" s
[1]; [8]
  Tear film break-up time (s) D15: 50.67 ± 10.41" s
[1]
  tear film break-up time: significantly increased the tear film break-up time on day 15
[2]
  intraocular pressure after continuous ocular administration: no abnormal intraocular pressure was observed
[2]; D0, before administration, 50 µL/eye (compounds and fluorometholone 1 mg/mL, loteprednol 5 mg/mL)
  Intraocular pressure of guinea pigs (mmHg) D0: 13.5 ± 0.6 mmHg
[2]; D7, 50 µL/eye (compounds and fluorometholone 1 mg/mL, loteprednol 5 mg/mL)
  Intraocular pressure of guinea pigs (mmHg) D7: 15.3 ± 1.7 mmHg
[2]; D14, 50 µL/eye (compounds and fluorometholone 1 mg/mL, loteprednol 5 mg/mL)
  Intraocular pressure of guinea pigs (mmHg) D14: 15.3 ± 1.5 mmHg
[2]; D21, 50 µL/eye (compounds and fluorometholone 1 mg/mL, loteprednol 5 mg/mL)
  Intraocular pressure of guinea pigs (mmHg) D21: 15.3 ± 2.2 mmHg
[2]; D28, 50 µL/eye (compounds and fluorometholone 1 mg/mL, loteprednol 5 mg/mL)
  Intraocular pressure of guinea pigs (mmHg) D28: 14.9 ± 1.6 mmHg
[3]
  pharmacokinetic properties (plasma clearance rate, systemic exposure): pharmacokinetic properties similar to those of compound 8
[4]; [6]
  Corneal fluorescein sodium staining score D3: 2.17 ± 0.98
[4]; [7]
  Corneal fluorescein sodium staining score D7: 1.0 ± 0.98
[4]; [8]
  Corneal fluorescein sodium staining score D15: 1.0 ± 0.63"
[4]
  inflammatory response on the ocular surface / ocular symptoms: significantly inhibited the inflammatory response on the ocular surface on day 15
[5]; EC50 of agonist activity, HEK293 reporter cells, top concentration 50 µM, read-out: Nuclear receptor enzyme activity (nM) MR
  EC50: > 50000 nM
[5]
  Target selectivity MR/GR: > 2.4×10^5
Psoriasis model mice
  PASI scores: PASI scores significantly decreased on day 7
Psoriasis model mice; day 8 of modeling, 0.2 g cream per mouse daily for 7 days (compounds 1 mg/g, fluticasone propionate 0.5 mg/g)
  PASI score: 3.8 ± 1.0

## C[C@]12C=CC(=O)C=C1CC[C@H]1[C@@H]3C[C@H]4OC(c5ccc(COC6CCOC6=O)cc5)O[C@@]4(C(=O)CO)[C@@]3(C)C[C@H](O)[C@@]12Cl (stereo partly drawn) [Compound 22, (6aS,6bR,7S,8aS,8bS,11aR,12aS,12bS)-6b-Chloro-7-hydroxy-8b-(2-hydroxyacetyl)-6a,8a-dimethyl-10-(4-(((2-oxotetrahydrofuran-3-yl)oxy)methyl)phenyl)-1,2,6a,6b,7,8,8a,8b,11a,12,12a,12b-do decahydro-4H-naphtho[2',1':4,5]indeno[1,2-d][1,3]dioxol-4-one]
[1]
  tear film break-up time: significantly increased the tear film break-up time
[2]
  intraocular pressure after continuous ocular administration: no abnormal intraocular pressure observed
[3]
  pharmacokinetic properties (plasma clearance rate, systemic exposure): pharmacokinetic properties similar to those of compound 8
[4]
  inflammatory response on the ocular surface / ocular symptoms: significantly alleviated the ocular symptoms in dry eye syndrome model New Zealand rabbits
[5]
  EC50: > 50000 nM
  Target selectivity MR/GR: > 9.1×10^4
Psoriasis model mice
  PASI scores: significantly decreased PASI scores on day 7
